Experimental data: patent US7964647B2 (Mutual Pharmaceutical Company, Inc., priority 2007, dated 2011)

Tested on: patients with acute gout flare (acute gouty arthritic attack)
Assay: Multicenter, randomized, double-blind, placebo-controlled dose comparison study in acute gout flare: efficacy (target joint pain)
Format: in vivo, human
Conditions: for Difference between treatment groups in mean change from baseline in target joint pain, High vs. Low / Difference between treatment groups in mean change from baseline in target joint pain, High vs. Placebo / Difference between treatment groups in mean change from baseline in target joint pain, Low vs. Placebo / Change from baseline in target joint pain, Mean / Change from baseline in target joint pain, Median / Difference between treatment groups in mean change from baseline in target joint pain score at 24 hours, High vs. Low / Difference between treatment groups in mean change from baseline in target joint pain score at 24 hours, High vs. Placebo / Difference between treatment groups in mean change from baseline in target joint pain score at 24 hours, Low vs. Placebo: LOCF, ITT
From the text: A sufficient number of patients are screened to enroll and randomize 300 patients (100 patients per treatment group) who meet the criteria of the American College of Rheumatology (ACR) for acute arthritis of gout.
Efficacy assessment will be made based on patient and Investigator inputs. Patients will record pain severity and sleep interference on a study diary. The severity of pain for each joint affected by the acute gouty arthritic attack will be rated on an 11-point pain intensity numerical rating scale (PI-NRS) that ranges from 0 (“no pain”) to 10 (“worst possible pain”). […] Investigators will provide clinical assessments in the clinic at all Post-Flare Phase study visits, and at medically necessary intervening visits. For these assessments, each of the patient's joints affected by the acute gouty arthritic attack will be examined and signs and symptoms of inflammation will be rated (erythema [absent, present, or not assessable], swelling [0, “none” to 3, “severe”], and tenderness to touch [0, “none” to 3, “severe”]).
The target joint is identified during data analysis as that joint affected by the acute gout flare with the highest baseline pain score on the patient diary. Ties among maximum joint scores for an individual are resolved by random selection.
The secondary efficacy variables are assessments of magnitude of pain reduction, time to response, time to complete pain relief, and interference with sleep as recorded on patient diaries by the patient. Signs and symptoms of inflammation per Investigator's clinical assessments of the target joint are evaluated. Time to drop out (use of rescue medications) is also evaluated. Investigator global assessment of response to treatment is assessed.
Analyses will also be made on an Evaluable patient population with an Evaluable patient defined as one who, in addition to being included in the PP population, completed the randomized treatment course. The ITT population will be used for the evaluation of safety.
Statistical tests for efficacy analysis are two-tailed with an alpha significance level of 0.05.
The sensitivity to alternate definitions of response (based both on magnitude of reduction from baseline as well as time point) will be evaluated as secondary endpoints. As additional sensitivity analyses, these tests will also be repeated for the PP and Evaluable populations if the sample sizes differ from the overall ITT population by more than 10%.
Change in pain intensity, interference with sleep, time to 50% reduction in pain, and time to complete pain relief will be analyzed as continuous variables using analysis of covariance with study site, treatment group, and site by treatment interaction as independent variables for change in pain intensity and interference with sleep, with baseline score as a covariate. For the Investigator's clinical assessment of inflammation (erythema, swelling, and tenderness to touch) and Investigator's global assessment of response to treatment, the treatment groups will be compared using the Mantel-Haenszel chi-square test stratified on study site.

[1] = 24 hours post first dose, High dose 4.8 mg, N = 52
[2] = 24 hours post first dose, Low dose 1.8 mg, N = 74
[3] = 32 hours post first dose, High dose 4.8 mg, N = 52
[4] = 32 hours post first dose, Low dose 1.8 mg, N = 74
[5] = Early treatment start (within 4 hours)
[6] = Early treatment start (within 4 hours), High dose 4.8 mg
[7] = Early treatment start (within 4 hours), Low dose 1.8 mg
[8] = Hour 24, High dose 4.8 mg, n = 51
[9] = Hour 24, Low dose 1.8 mg, n = 74
[10] = Hour 32, High dose 4.8 mg, n = 51
[11] = Hour 32, Low dose 1.8 mg, n = 74
[12] = Late treatment start (after 4 hours)
[13] = Late treatment start (after 4 hours), High dose 4.8 mg
[14] = Late treatment start (after 4 hours), Low dose 1.8 mg

Compound: COc1cc2c(c(OC)c1OC)-c1ccc(OC)c(=O)cc1[C@@H](NC(C)=O)CC2 [Colchicine, (−)-N-[(7S,12aS)-1,2,3,10-tetramethoxy-9-oxo-5,6,7,9-tetrahydrobenzo[a]heptalen-7-yl]-acetamide]
- Difference between treatment groups in mean change from baseline in target joint pain, High vs. Low (24 hours post first dose): 0.2
- Difference between treatment groups in mean change from baseline in target joint pain, High vs. Placebo (24 hours post first dose): −1.3
- Difference between treatment groups in mean change from baseline in target joint pain, Low vs. Placebo (24 hours post first dose): −1.5
- Change from baseline in target joint pain, Mean [1]: −2.0
- Change from baseline in target joint pain, Median [1]: −2.0
- Change from baseline in target joint pain, Mean [2]: −2.2
- Change from baseline in target joint pain, Median [2]: −2.0
- Number (%) of responders, at least a 2-unit reduction in target joint pain score [1]: 18 (34.6) Number (%)
- Number (%) of responders, at least a 2-unit reduction in target joint pain score [2]: 32 (43.2) Number (%)
- Difference between treatment groups in mean change from baseline in target joint pain, High vs. Low (32 hours post first dose): 0.1
- Difference between treatment groups in mean change from baseline in target joint pain, High vs. Placebo (32 hours post first dose): −1.6
- Difference between treatment groups in mean change from baseline in target joint pain, Low vs. Placebo (32 hours post first dose): −1.6
- Change from baseline in target joint pain, Mean [3]: −2.3
- Change from baseline in target joint pain, Median [3]: −2.0
- Change from baseline in target joint pain, Mean [4]: −2.4
- Change from baseline in target joint pain, Median [4]: −2.5
- Number (%) of responders, at least a 2-unit reduction in target joint pain score [3]: 20 (38.5) Number (%)
- Number (%) of responders, at least a 2-unit reduction in target joint pain score [4]: 34 (45.9) Number (%)
- Difference between treatment groups in mean change from baseline in target joint pain score at 24 hours, High vs. Low [5]: 0.2
- Difference between treatment groups in mean change from baseline in target joint pain score at 24 hours, High vs. Placebo [5]: −1.3
- Difference between treatment groups in mean change from baseline in target joint pain score at 24 hours, Low vs. Placebo [5]: −1.5
- Change from baseline in target joint pain score at 24 hours post first dose, Mean [6]: −2.0
- Change from baseline in target joint pain score at 24 hours post first dose, Median [6]: −2.0
- Change from baseline in target joint pain score at 24 hours post first dose, Mean [7]: −2.2
- Change from baseline in target joint pain score at 24 hours post first dose, Median [7]: −2.0
- Number of responders (>=50% reduction in target joint pain score, no rescue medication) at 24 hours post first dose (High (standard) dose 4.8 mg over 6 h, N = 52, ITT): 17 (32.7) N (%)
- Number (%) of patients using rescue medication up to and including the 24-hour post first dose assessment (High dose 4.8 mg, N = 52): 18 (34.6) n (%)
- Patients with >=0% improvement in target joint pain score at 24 hours post first dose (High dose 4.8 mg, N = 52): 52 (100.0%)
- Patients with >=10% improvement in target joint pain score at 24 hours post first dose (High dose 4.8 mg, N = 52): 32 (61.5%)
- Patients with >=20% improvement in target joint pain score at 24 hours post first dose (High dose 4.8 mg, N = 52): 29 (55.8%)
- Patients with >=30% improvement in target joint pain score at 24 hours post first dose (High dose 4.8 mg, N = 52): 21 (40.4%)
- Patients with >=40% improvement in target joint pain score at 24 hours post first dose (High dose 4.8 mg, N = 52): 21 (40.4%)
- Patients with >=50% improvement in target joint pain score at 24 hours post first dose (High dose 4.8 mg, N = 52): 19 (36.5%)
- Patients with >=60% improvement in target joint pain score at 24 hours post first dose (High dose 4.8 mg, N = 52): 15 (28.8%)
- Patients with >=70% improvement in target joint pain score at 24 hours post first dose (High dose 4.8 mg, N = 52): 10 (19.2%)
- Patients with >=80% improvement in target joint pain score at 24 hours post first dose (High dose 4.8 mg, N = 52): 9 (17.3%)
- Patients with >=90% improvement in target joint pain score at 24 hours post first dose (High dose 4.8 mg, N = 52): 6 (11.5%)
- Patients with >=100% improvement in target joint pain score at 24 hours post first dose (High dose 4.8 mg, N = 52): 6 (11.5%)
- Total Pain Relief (TOTPAR) based on all target joint pain scores, Mean [8]: 20.9
- Total Pain Relief (TOTPAR) based on all target joint pain scores, Median [8]: 11.5
- Total Pain Relief (TOTPAR) based on all target joint pain scores, Mean [9]: 30.5
- Total Pain Relief (TOTPAR) based on all target joint pain scores, Median [9]: 23.0
- Total Pain Relief (TOTPAR) based on all target joint pain scores, Mean [10]: 31.9
- Total Pain Relief (TOTPAR) based on all target joint pain scores, Median [10]: 27.5
- Total Pain Relief (TOTPAR) based on all target joint pain scores, Mean [11]: 45.5
- Total Pain Relief (TOTPAR) based on all target joint pain scores, Median [11]: 34.1
- Difference between treatment groups in mean change from baseline in target joint pain score at 24 hours, High vs. Low [12]: 0.1
- Difference between treatment groups in mean change from baseline in target joint pain score at 24 hours, High vs. Placebo [12]: −1.6
- Difference between treatment groups in mean change from baseline in target joint pain score at 24 hours, Low vs. Placebo [12]: −1.6
- Change from baseline in target joint pain score at 24 hours post first dose, Mean [13]: −2.3
- Change from baseline in target joint pain score at 24 hours post first dose, Median [13]: −2.0
- Change from baseline in target joint pain score at 24 hours post first dose, Mean [14]: −2.4
- Change from baseline in target joint pain score at 24 hours post first dose, Median [14]: −2.5
- Number of responders (>=50% reduction in target joint pain score, no rescue medication) at 24 hours post first dose (Low dose 1.8 mg over 1 h, N = 74, ITT): 28 (37.8) N (%)
- Number (%) of patients using rescue medication up to and including the 24-hour post first dose assessment (Low dose 1.8 mg, N = 74): 23 (31.1) n (%)
- Patients with >=0% improvement in target joint pain score at 24 hours post first dose (Low dose 1.8 mg, N = 74): 74 (100.0%)
- Patients with >=10% improvement in target joint pain score at 24 hours post first dose (Low dose 1.8 mg, N = 74): 47 (63.5%)
- Patients with >=20% improvement in target joint pain score at 24 hours post first dose (Low dose 1.8 mg, N = 74): 45 (60.8%)
- Patients with >=30% improvement in target joint pain score at 24 hours post first dose (Low dose 1.8 mg, N = 74): 39 (52.7%)
- Patients with >=40% improvement in target joint pain score at 24 hours post first dose (Low dose 1.8 mg, N = 74): 36 (48.6%)
- Patients with >=50% improvement in target joint pain score at 24 hours post first dose (Low dose 1.8 mg, N = 74): 30 (40.5%)
- Patients with >=60% improvement in target joint pain score at 24 hours post first dose (Low dose 1.8 mg, N = 74): 24 (32.4%)
- Patients with >=70% improvement in target joint pain score at 24 hours post first dose (Low dose 1.8 mg, N = 74): 20 (27.0%)
- Patients with >=80% improvement in target joint pain score at 24 hours post first dose (Low dose 1.8 mg, N = 74): 15 (20.3%)
- Patients with >=90% improvement in target joint pain score at 24 hours post first dose (Low dose 1.8 mg, N = 74): 9 (12.2%)
- Patients with >=100% improvement in target joint pain score at 24 hours post first dose (Low dose 1.8 mg, N = 74): 8 (10.8%)
- Patients achieving at least 40% relief at 24 hrs post-first dose, regardless of pain rescue (FIG. 1) (low dose 1.8 mg): 49%
- Proportion of patients rescued prior to 24 hours (low dose 1.8 mg): 28.4%
- Proportion of patients with ≧50% pain reduction at 24 hrs without pain rescue (low dose 1.8 mg): 37.8%
- Proportion of patients rescued prior to 24 hours (standard dose 4.8 mg): 34.6%
- Proportion of patients with ≧50% pain reduction at 24 hrs without pain rescue (standard dose 4.8 mg): 32.7%
